The values below come from patent publication US20180092840A1, “ULTRASOUND-ENHANCED DRUG DELIVERY FOR TREATMENT OF ONYCHOMYCOSIS” (The George Washington University, priority 2016, published 2018).

A value given as a limit tells only on which side of the number the result lay.

One data set concerns onychomycosis. Particulars: cited from earlier work; for side effects: onychomycosis treatment.
Data set [1] can be described thus: diffusion cell test (Franz Diffusion Cell, spectrophotometry) of blue dye through nail with ultrasound. It is filed as in vitro ADME, pig. Particulars: 5 min sonication, 60 min total, n=6. How it is done:
A second set of experiments was conducted utilizing a diffusion cell system 500, as set forth in FIG. 5 (hereinafter, the “diffusion cell test”). As described more fully below, a diffusion cell 502 having a receiving compartment 504 containing a stir bar 506 were positioned at the bottom of the system 500. A sampling port 508 projected from a side of the receiving compartment 504 to collect liquids contained therein. A nail adapter 510 fitted with a nail 512 was positioned above the diffusion cell 502. A lid adapter 514 was positioned above the nail 512. The lid adapter 514 contained a donor compartment 516, which held the blue dye, as well as a thermocouple 518 and a transducer 520. The parameters of the diffusion cell test were the same as set forth above with respect to Example 1, except in this example, spectrophotometry and a Franz Diffusion Cell were used to measure how much of the blue dye compound permeated all the way through the nail from a donor compartment (filled with the dye) to a receiver compartment, using dilution at different ultrasound parameters.
The diffusion cell (commercially available from PermeGear, Inc., Hellertown, Pa., USA) was fit with a custom-made nail adapter to avoid leakage of dye around the nail and a lid adapter so that 50 mL of dye and the transducer could easily fit above the nail adapter, as illustrated in FIG. 5. The nail adapter was made from plastic that screws together tightly and secures to the diffusion cell using small metal clamps. The lid adapter was made from a plastic beaker and secured onto the top of the nail adapter using epoxy. During the experimentation, the receiver compartment of the diffusion cell was filled with saline solution and a magnetic stirring bar which was spun at 450 RPM to ensure the compartment was fully mixed. The entire diffusion cell was placed in a water bath at 37° C. The donor compartment was then filled with 50 mL of the previously-described blue dye. Before being placed in the donor compartment, the blue dye was maintained at room temperature for at least 20 minutes. The transducer was placed 85 mm from the nail (as opposed to 45 mm from the nail in the luminosity experiment). The nail was then sonicated for five (5) minutes.
After sonication, the diffusion cell experiment continued for another 55 minutes to allow the dye to travel through the entirety of the nail. The Control nails were not treated with any ultrasound and were exposed to the dye solution for 60 minutes. […]
After the completion of the experiment, 2 mL of solution was collected from the receiving compartment of the diffusion cell and its absorption was measured with the spectrophotometer (commercially available as UVmini-1240 from Shimadzu Scientific Instruments of Columbia, Md., USA) using saline as a base. […]

With `C=C1CCN([C@H](C)[C@](O)(Cn2cncn2)c2ccc(F)cc2F)CC1` [Efinaconazole], the “cure rate compared with Ciclopirox” value in the data set on onychomycosis (topical, applied for up to ten (10) months) was “slightly better cure rate”.

Take `CN(C/C=C/C#CC(C)(C)C)Cc1cccc2ccccc12` [Terbinafine]: in the data set on onychomycosis, the side effects entry is “elevated levels of liver enzymes and hepatitis”. In the data set with onychomycosis (orally prescribed), the overall failure rate result is “greater than 30%” and the time to work is over 6 months.

For `CCN(Cc1cccc(S(=O)(=O)[O-])c1)c1ccc(C(=C2C=CC(=[N+](CC)Cc3cccc(S(=O)(=O)[O-])c3)C=C2)c2ccccc2S(=O)(=O)[O-])cc1.[Na+].[Na+]` [blue dye, FD&C Blue No. 1—Brilliant Blue FCF, E133], the “increase in nail permeability vs Control” value in data set [1] (1 MHz) turned out to be 70.3%; in data set [1] (400 kHz), 26.7%; in data set [1] (600 kHz) it was 19.5%; in data set [1] (800 kHz) it was 44.5%.

Turning to `Cc1cc(C2CCCCC2)n(O)c(=O)c1` [ciclopirox], the cure rate with onychomycosis (nail polish form, after six (6) months of daily application) was 36%. Moreover, the side effects entry with onychomycosis was “only non-serious, infrequently reported side effects”.
